Values of other authors, collected in patent EP0097942A1, “Antiallergic pyrazine-bis(2-oxoglycine) compounds” (THE DOW CHEMICAL COMPANY, priority 1982, dated 1984).
Like-named read-outs stand apart in the source and are kept apart here.

System: PCA reactions
Settings: general statement on reference drug

In the case of O=C(O)c1cc(=O)c2c(OCC(O)COc3cccc4oc(C(=O)O)cc(=O)c34)cccc2o1 [Disodium cromoglycate], the “activity in PCA test” value (administered i.p.) is listed as “active” and the “activity in PCA test” value (administered orally) is listed as “not orally”.
